Measured values: patent US20040103452A1, “Inducible apomixis” (priority 2001, published 2004)

Test system: Arabidopsis thaliana Ler x transgenic WS (AtLTP1::AtSERK1) F1 plants
Assay: SSLP analysis of F2 progeny for apomictic plants after 2,4-D application to F1 flower buds
Format: in vivo
Conditions: flower buds dipped in 2 μM 2,4-D 1 to 2 days pre-anthesis, repeated twice
Method: Transgenic T3 Arabidopsis thaliana ecotype WS plants, i.e. transgenic plants in the third generation after transformation, that are homozygous for the AtLTP1::AtSERK1 construct are used as male donor to pollinate Arabidopsis thaliana ecotype Landsberg erecta (L r) plants. The flower buds of the F1 plants at stage 11 to 12 (Smyth et al., The Plant Cell 2: 755, 1990) approximately 1 to 2 days pre-anthesis are dipped in an aqueous solution containing 2 μM 2,4-D supplemented with 0.04% (v/v) Triton X-100 as a surfactant as described by Vivian-Smith et al., (Plant Physiol. 121: 437, 1999). The treatment is repeated twice in a two-day period and plants are left to set F2 seeds. In parallel a control cross between wild-type Ler female and wild-type WS male plant is made to obtain F1 plants. Those F1 plants are designated as wild-type F1 plants and they are analysed in the same way as the transgenic F1 plants except that they are not auxin treated.
The F2 seeds are grown into seedlings and a few rosette leaves from each plant are used for DNA extraction as described by Ponce et al., Mol. Gen. Genet. 261: 408, 1999. Simple Sequence Length Polymorphism (SSLP) analysis is carried out by simultaneous amplification of 11 SSLP markers (see Table 1) using multiplex PCR with fluorescently labeled primers as described by Ponce et al. supra. […]

`O=C(O)COc1ccc(Cl)cc1Cl` [2, 4 D, 2,4-dichlorophenoxyacetic acid] was tested, and the “Plants h t rozygous for 11 SSLP markers Observed” value (AtLTP::AtSERK1 cross No 14 (line with lower SERK1 level), 144 F2 plants analyzed) was 0 and the “Plants h t rozygous for 11 SSLP markers Observed” value (AtLTP::AtSERK1 cross No 15, 175 F2 plants analyzed) was 2.
